Structures can show the parent of a compound that is named as a salt.
Each compound was assayed against rat TRPV1 (Rattus norvegicus (Rat), UniProt O35433). Conditions: read-out: Rat IC50.
Chain of rat TRPV1 (O35433 whole entry): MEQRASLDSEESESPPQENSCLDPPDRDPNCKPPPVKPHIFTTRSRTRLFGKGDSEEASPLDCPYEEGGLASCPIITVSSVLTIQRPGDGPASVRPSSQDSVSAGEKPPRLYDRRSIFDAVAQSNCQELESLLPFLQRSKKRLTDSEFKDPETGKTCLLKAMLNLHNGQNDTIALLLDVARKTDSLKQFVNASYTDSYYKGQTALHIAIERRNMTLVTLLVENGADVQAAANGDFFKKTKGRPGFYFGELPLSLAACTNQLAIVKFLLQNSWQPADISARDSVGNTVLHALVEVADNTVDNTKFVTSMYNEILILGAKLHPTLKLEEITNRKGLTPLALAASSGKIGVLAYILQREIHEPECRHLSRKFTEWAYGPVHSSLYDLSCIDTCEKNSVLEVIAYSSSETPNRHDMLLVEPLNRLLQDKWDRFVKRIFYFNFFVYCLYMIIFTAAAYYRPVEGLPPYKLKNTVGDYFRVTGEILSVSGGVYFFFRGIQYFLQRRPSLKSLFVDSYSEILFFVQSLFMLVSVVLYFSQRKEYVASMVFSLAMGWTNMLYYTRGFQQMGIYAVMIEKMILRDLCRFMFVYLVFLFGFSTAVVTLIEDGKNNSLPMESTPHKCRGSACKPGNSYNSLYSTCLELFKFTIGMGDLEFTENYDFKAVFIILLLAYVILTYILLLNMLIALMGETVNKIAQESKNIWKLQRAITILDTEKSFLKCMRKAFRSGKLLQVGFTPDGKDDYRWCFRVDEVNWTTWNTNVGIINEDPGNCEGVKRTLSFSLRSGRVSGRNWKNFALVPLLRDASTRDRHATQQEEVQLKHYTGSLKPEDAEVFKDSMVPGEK
Description: Biological Testing: Functional Assay: Block of Capsaicin-Induced Ca^2+ Influx A. Human Assay
Cells were passaged frequently, every 3-5 days, to avoid overgrowth, depletion of essential medium components, or acidic medium exposure. Cells were passaged using a brief wash in 0.05% trypsin with 1 mM EDTA, followed by dissociation in divalent-free phosphate-buffered saline (Hyclone #SH30028.02). […] The assay buffer was composed of 130 mM NaCl, 2 mM KCl, 2 mM MgCl2, 10 mM HEPES, 5 mM glucose, and either 2 mM or 20 μM CaCl2. On the day of the experiment, the culture medium was replaced with 2 mM calcium assay buffer using an automated plate washer (ELx405; Biotek, VT). […] After loading the cells, the dye solution was replaced with 50 μL/well of 20 μM calcium assay buffer using the ELx405 plate washer. Test compounds (50 μL/well) were added to the plate and incubated for 30 min. […] The IC50 values were determined. […] The contents of the wells were mixed 3 times (40 μL mix volume) immediately after the additions were made. Concentration dependence of block was determined by exposing each well of cells in duplicate rows of a 96 well plate to a serial dilution of test compound. The concentration series usually started at 10 μM with a three-fold serial decrement in concentration. The magnitude of the capsaicin response was determined by measuring the change in fluo3 fluorescence before and 100 seconds after the addition of the agonist. Data were analyzed using a non-linear regression program (Origin; OriginLab, MA). IC50 values shown are the average (mean) of the results obtained.
The assay was performed as described above, using HEK293 cells transfected with rat TRPV1 (rTRPV1/HEK293). […] IC50 values shown are the average (mean) of the results obtained.
With `CN(C)c1nc2c(c(Nc3ccc(C(F)(F)F)nc3)n1)CCN(c1ncccc1C(F)(F)F)CC2` [Example 43B, N^2,N^2-Dimethyl-N^4-(6-trifluoromethyl-pyridin-3-yl)-7-(3-trifluoro-methyl-pyridin-2-yl)-6,7,8,9-tetrahydro-5H-pyrimido[4,5-d]azepine-2,4-diamine trifluoroacetic acid salt] the IC50 was 390 nM. `O=C(O)C1CCN(c2nc3c(c(Nc4ccc(C(F)(F)F)cc4)n2)CCN(c2ncccc2C(F)(F)F)CC3)CC1` [Example 57B, 1-[4-(4-Trifluoromethyl-phenylamino)-7-(3-trifluoromethyl-pyridin-2-yl)-6,7,8,9-tetrahydro-5H-pyrimido[4,5-d]azepin-2-yl]-piperidine-4-carboxylic acid trifluoroacetic acid salt] was tested, and the IC50 was 5500 nM. `FC(F)(F)c1ccc(Nc2nc(NCCN3CCCCC3)nc3c2CCN(c2ncccc2C(F)(F)F)CC3)cc1` [Example 58B, N^2-(2-Piperidin-1-yl-ethyl)-N^4-(4-trifluoromethyl-phenyl)-7-(3-trifluoro-methyl-pyridin-2-yl)-6,7,8,9-tetrahydro-5H-pyrimido[4,5-d]azepine-2,4-diamine trifluoroacetic acid salt] was tested, and the IC50 was 1500 nM. For `FC(F)(F)c1ccc(Nc2nc(NC3CCOCC3)nc3c2CCN(c2ncccc2C(F)(F)F)CC3)cc1` [Example 61B, N^2-(Tetrahydro-pyran-4-yl)-N^4-(4-trifluoromethyl-phenyl)-7-(3-trifluoro-methyl-pyridin-2-yl)-6,7,8,9-tetrahydro-5H-pyrimido[4,5-d]azepine-2,4-diamine trifluoroacetic acid salt], the IC50 was 230 nM. `CN(C)c1nc2c(c(NCc3ccc(Cl)c(Cl)c3)n1)CCN(c1ncccc1C(F)(F)F)CC2` [Example 73B, N^4-(3,4-Dichloro-benzyl)-N^2,N^2-dimethyl-7-(3-trifluoromethyl-pyridin-2-yl)-6,7,8,9-tetrahydro-5H-pyrimido[4,5-d]azepine-2,4-diamine trifluoroacetic acid salt] showed an IC50 of 6700 nM.

From patent US9738649B2 (priority 2006, dated 2017)
